Measurements: patent US20050004167A1, “Branched chain amino acid-dependent aminotransferase inhibitors and their use in the treatment of neurodegenerative diseases” (WARNER-LAMBERT COMPANY LLC, priority 2001, published 2005)
Values joined by “and” are separate entries in the source; they are usually repeats but may differ in a detail not shown here. Equal entries are not always repeated.

Key:
rat BCAT cytosolic form = molecular target: T1, rat BCAT cytosolic form (Rattus norvegicus, UniProt P54690); assay: In vitro coupled enzyme assay (glutamate dehydrogenase, NADH formation), rat BCATc; format: biochemical; details: recombinant rat BCATc, 37° C., 25 mM phosphate buffer pH 7.8; several values in a cell = repeat determinations; read-out: RrBCATc
T1 construct: made in house; host or cells: E. coli BL21(DE3)
T1 sequence (P54690 1-411): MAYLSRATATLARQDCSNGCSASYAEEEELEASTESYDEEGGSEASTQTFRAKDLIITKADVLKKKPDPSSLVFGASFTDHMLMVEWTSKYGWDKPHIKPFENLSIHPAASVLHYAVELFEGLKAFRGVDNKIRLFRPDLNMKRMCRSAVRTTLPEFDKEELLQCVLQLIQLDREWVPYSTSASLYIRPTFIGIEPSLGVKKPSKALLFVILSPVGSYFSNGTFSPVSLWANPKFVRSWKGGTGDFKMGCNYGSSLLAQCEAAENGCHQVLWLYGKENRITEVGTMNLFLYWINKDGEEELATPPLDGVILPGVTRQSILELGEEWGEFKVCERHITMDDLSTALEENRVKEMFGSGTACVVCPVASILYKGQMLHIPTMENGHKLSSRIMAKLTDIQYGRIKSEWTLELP
Method in brief: (§1)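 At 37 °C in 25 mM phosphate pH 7.8 with 2 mM DTT, 1.25 μg His-tag-purified E. coli-expressed BCAT transaminated 750 μM L-leucine with 500 μM α-ketoglutarate and 10 μM PLP. Glutamate was coupled via glutamate dehydrogenase (1 mM NAD+, 4 mM ADP) to NADH formation at 340 nm. Compounds were added in DMSO up to 5% v/v.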

[1] = molecular target: T2, human Branched Chain Amino Acid Aminotransferase cytosolic form (hBCATc) (Homo sapiens, UniProt P54687); assay: In vitro coupled enzyme assay (glutamate dehydrogenase, NADH formation), human BCATc; format: biochemical; details: recombinant human BCATc, 37° C., 25 mM phosphate buffer pH 7.8; several values in a cell = repeat determinations; read-out: RhBCATc
T2 construct: made in house; host or cells: E. coli BL21(DE3)
T2 sequence (P54687 1-386): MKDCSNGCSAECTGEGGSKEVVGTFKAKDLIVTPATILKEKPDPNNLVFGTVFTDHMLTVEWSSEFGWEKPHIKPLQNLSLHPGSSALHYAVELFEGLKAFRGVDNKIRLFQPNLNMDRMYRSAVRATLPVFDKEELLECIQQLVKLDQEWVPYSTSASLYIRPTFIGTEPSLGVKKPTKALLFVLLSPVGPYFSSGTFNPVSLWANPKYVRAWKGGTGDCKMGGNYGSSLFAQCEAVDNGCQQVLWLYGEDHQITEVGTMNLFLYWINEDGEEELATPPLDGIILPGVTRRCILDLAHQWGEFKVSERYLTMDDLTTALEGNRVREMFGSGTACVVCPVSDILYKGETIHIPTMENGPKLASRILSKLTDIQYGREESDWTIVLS
Method in brief: as §1

Row | SMILES | IC50 (rat BCAT cytosolic form) | IC50 [1] | melting point
1 | O=C(NNS(=O)(=O)c1cccc(Br)c1)c1cc2cc(Cl)cc(Cl)c2o1 [Example 74, 2-Benzofurancarboxylic acid, 5,7-dichloro 2-[(3-bromophenyl)sulfonyl]-hydrazide] | 3710 nM | 64.5 µM | 248.5 to 248.8 °C
2 | COc1ccc2c(OC)c(C(=O)NNS(=O)(=O)c3ccccc3)oc2c1 [Example 59, 2-Benzofurancarboxylic acid, 3,6-dimethoxy-, 2-(phenylsulfonyl)hydrazide] | 120 nM | 3.42 µM | 174.8 to 175.2 °C
3 | O=C(NNS(=O)(=O)c1ccccc1)c1ccc2[nH]c3c(c2c1)CCCC3 [Example 2, 2,3,4,9-Tetrahydro-1H-carbazole-6-carboxylic acid 2-(phenylsulfonyl)hydrazide] | 130 nM | 2.6 µM | > 250 °C
4 | O=C(NNS(=O)(=O)c1ccccc1Cl)c1cc2cc(Cl)ccc2o1 [Example 42, 2-Benzofurancarboxylic acid, 5-chloro-2-[(2-chlorophenyl)sulfonyl]hydrazide] | 1300 nM | 5.3 µM and 10.4 µM | 200.3 to 200.5 °C
5 | O=C(NNS(=O)(=O)c1cccc(Br)c1)c1cc2cc(Cl)ccc2o1 [Example 45, 2-Benzofurancarboxylic acid, 5-chloro-2-[(3-bromophenyl)sulfonyl]hydrazide] | 210 nM | 2.29 µM | 218.1 to 220 °C
6 | O=C(NNS(=O)(=O)c1ccccc1)c1ccc2c(c1)CCO2 [Example 149, 2,3-Dihydro-benzofuran-5-carboxylic acid 2-(phenylsulfonyl)hydrazide] | 3300 nM | 17.9 µM | 181 to 183 °C
7 | O=C(NNS(=O)(=O)c1cc(Cl)cc(Cl)c1)c1ccc2oc3ccccc3c2c1 [Example 18, Dibenzofuran-2-carboxylic acid 2-(3,5-dichlorophenylsulfonyl)hydrazide] | 530 nM and 400 nM | 7.9 µM | 231 to 233 °C
8 | N#Cc1cccc(S(=O)(=O)NNC(=O)c2cc3cc(Cl)ccc3o2)c1 [Example 27, 2-Benzofurancarboxylic acid, 5-chloro-, 2-[(3-cyanophenyl)sulfonyl]hydrazide] | 45200 nM | 171 µM | 208.5 to 210 °C
9 | O=C(NNS(=O)(=O)c1ccccc1)c1cc2cc(Cl)cc(Cl)c2o1 [Example 69, 2-Benzofurancarboxylic acid, 5,7-dichloro 2-(phenylsulfonyl)sulfonyl hydrazide] | 50 nM | 3.86 µM | 216.4 to 218.1 °C
10 | Cc1cccc(S(=O)(=O)NNC(=O)c2cc3cc(Cl)ccc3o2)c1 [Example 47, 2-Benzofurancarboxylic acid, 5-chloro-2-[(3-methylphenyl)sulfonyl]hydrazide] | 150 nM and 200 nM | 0.84 µM and 1.47 µM | 201.2 to 201.6 °C
11 | Cc1ccc(F)cc1S(=O)(=O)NNC(=O)c1cc2cc(Cl)ccc2o1 [Example 50, 2-Benzofurancarboxylic acid, 5-chloro-2-[(5-fluoro-2-methylphenyl)sulfonyl]-hydrazide] | 1300 nM | 5.18 µM and 9.1 µM | 209.6 to 211.2 °C
12 | O=C(NNS(=O)(=O)c1ccccc1Cl)c1ccc2oc3ccccc3c2c1 [Example 17, 2-Dibenzofurancarboxylic acid 2-[(2-chlorophenyl)sulfonyl]hydrazide] | 1100 nM and 540 nM | 11.4 µM | 235 to 236 °C
13 | O=C(NNS(=O)(=O)c1ccc(F)cc1Cl)c1ccc2oc3ccccc3c2c1 [Example 25, 2-Dibenzofurancarboxylic acid 2-[(2-chloro-4-fluorophenyl)sulfonyl]hydrazide] | 1800 nM | 21.9 µM | 227.5 to 227.8 °C
14 | CCOc1c(C(=O)NNS(=O)(=O)c2ccccc2)oc2ccc(-c3ccccc3)cc12 [Example 66, 2-Benzofurancarboxylic acid, 3-ethoxy-5-phenyl-, 2-(phenylsulfonyl)hydrazide] | 150 nM | 1.38 µM | 184.3 to 184.6 °C
15 | O=C(NNS(=O)(=O)c1cccc(F)c1)c1cc2cc(Cl)ccc2o1 [Example 40, 2-Benzofurancarboxylic acid, 5-chloro-2-[(3-fluorophenyl)sulfonyl]hydrazide] | 1000 nM | 4.86 µM and 8.8 µM | 174.4 to 174.7 °C
16 | O=C(NNS(=O)(=O)c1ccccc1C(F)(F)F)c1cnc2ccccc2c1 [Example 135, 3-Quinolinecarboxylic acid, 2-[(2-trifluoromethylphenyl)sulfonyl]hydrazide] | 2800 nM | 13 µM | 203.6 to 204.4 °C
17 | O=C(NNS(=O)(=O)c1cc(C(F)(F)F)cc(C(F)(F)F)c1)c1ccc2oc3ccccc3c2c1 [Example 32, 2-Dibenzofurancarboxylic acid, 2-[[3,5-bis(trifluoromethyl)phenyl]sulfonyl]-hydrazide] | > 100000 nM | > 100 µM | 244.7 to 245.5 °C
18 | Cc1c(Cl)cccc1S(=O)(=O)NNC(=O)c1cc2cc(Cl)ccc2o1 [Example 49, 2-Benzofurancarboxylic acid, 5-chloro-2-[(3-chloro-2-methylphenyl)sulfonyl]-hydrazide] | 3100 nM and 4000 nM | 1.75 µM and 3.6 µM | 198.2 to 198.5 °C
19 | O=C(NNS(=O)(=O)c1ccc(F)cc1)c1ccc2oc3ccccc3c2c1 [Example 24, 2-Dibenzofurancarboxylic acid 2-[(4-fluorophenyl)sulfonyl]hydrazide] | 1200 nM | 24 µM | 206.3 to 207 °C
20 | O=C(NNS(=O)(=O)c1cccc(Cl)c1)c1cc2cc(Cl)ccc2o1 [Example 43, 2-Benzofurancarboxylic acid, 5-chloro-2-[(3-chlorophenyl)sulfonyl]hydrazide] | 470 nM | 1.8 µM | 202.9 to 205.2 °C
